According to paper PMC4933878 (2016):

Test system: c-myc pu22 DNA (c-myc G-quadruplex DNA) (DNA, G4) TGGGGAGGGTGGGGAGGGTGGGGAAGG
Test: UV-vis absorption titration (hypochromism)
Conditions: 100 mM KCl; Tris-HCl, pH 7.2; 20 μM compound; hypochromism MLCT 14.6%, IL 38.9%; constant not given

C(#Cc1ccc(-c2nc3c4cccnc4c4ncccc4c3[nH]2)cc1)c1ccccc1.[Ru+2].c1ccc(-c2ccccn2)nc1.c1ccc(-c2ccccn2)nc1
binding: yes
